Data taken from patent EP0908457B1, “3-(1,2-benzisothiazol- and isoxazol-5-Y1)-2,4(1H,3H)-pyrimidinedione or thione and 3-(1,2-benzisothiazol- and isoxazol-5-y1)-4(3H)-pyrimidinone or thione herbicidal agents” (BASF AKTIENGESELLSCHAFT, priority 1997, dated 1999).

Assays:
[1] = system: Cyperus serotinus, Rottb.; assay: Preemergence weed control under flooded paddy conditions, CYPSE (Flatsedge); type: in vivo; details: preemergence; for herbicidal effect rating, CYPSE: meaning of each grade not given here
[2] = system: Oryza sativa, (L.) Tebonnet; assay: Rice tolerance to post-transplant applications under flooded paddy conditions (Example 187), ORYSAT (Rice, Tebonnet); for herbicidal effect rating ORYSAT: meaning of each grade not given here
Sagittaria pygmaea, L. = assay: Preemergence weed control under flooded paddy conditions, SAGPY (Arrowhead (Pygmaea)); type: in vivo; details: preemergence, flooded paddy; for herbicidal effect rating, SAGPY: meaning of each grade not given here
Cyperus iria = assay: Preemergence weed control under flooded paddy conditions, CYPIR (Rice Flatsedge); type: in vivo; details: preemergence, flooded paddy; for herbicidal effect rating, CYPIR: meaning of each grade not given here
[3] = system: Monochoria vaginalis, Presl.; assay: Preemergence weed control under flooded paddy conditions, MOOVA (Monochoria); type: in vivo; details: preemergence, flooded paddy; for herbicidal effect rating, MOOVA: meaning of each grade not given here
[4] = system: Echinochloa oryzoides (Ard.) Fritsch.; assay: Preemergence weed control under flooded paddy conditions, ECHORC (Watergrass (Calif.)); type: in vivo; details: preemergence, flooded paddy; for herbicidal effect rating, ECHORC: meaning of each grade not given here
[5] = Rate 0.0313 kg/ha, rated three to four weeks after treatment
[6] = Rate 0.0625 kg/ha, rated three to four weeks after treatment
[7] = Rate 0.1250 kg/ha, rated three to four weeks after treatment
[8] = Rate 0.2500 kg/ha, rated three to four weeks after treatment
[9] = 0.0313 kg/ha, rated three to four weeks after treatment
[10] = 0.0625 kg/ha, rated three to four weeks after treatment
[11] = 0.2500 kg/ha, rated three to four weeks after treatment
[12] = 0.1250 kg/ha, rated three to four weeks after treatment
[13] = Rate 0.0320 kg/ha, rated three to four weeks after treatment
[14] = Rate 0.0620 kg/ha, rated three to four weeks after treatment
[15] = Rate 0.0320 kg/ha, rated 3-4 weeks after treatment
[16] = Rate 0.0620 kg/ha, rated 3-4 weeks after treatment
[17] = Rate 0.1250 kg/ha, rated 3-4 weeks after treatment
[18] = Rate 0.2500 kg/ha, rated 3-4 weeks after treatment
[19] = Rate 0.5000 kg/ha, rated 3-4 weeks after treatment

C=C(C)C1CC=C(COCc2nsc3ccc(-n4c(=O)ccn(C)c4=O)cc23)CC1 (centres unmarked) [Example 211, 1-Methyl-3-{3-{{[4-(1-methylvinyl)-1-cyclohexen-1-yl]methoxy}methyl}-1,2-benzisothiazol-5-yl}-2,4(1H,3H)-pyrimidinedione]
CYPSE herbicidal effect rating [1, 5]: 0.0 | CYPSE herbicidal effect rating [1, 6]: 0.0 | CYPSE herbicidal effect rating [1, 7]: 0.0 | CYPSE herbicidal effect rating [1, 8]: 0.0 | ORYSAT herbicidal effect rating [2, 5]: 2.0 | ORYSAT herbicidal effect rating [2, 6]: 2.0 | ORYSAT herbicidal effect rating [2, 7]: 2.0 | ORYSAT herbicidal effect rating [2, 8]: 3.0 | SAGPY herbicidal effect rating (Sagittaria pygmaea, L.; [5]): 0.0 | SAGPY herbicidal effect rating (Sagittaria pygmaea, L.; [6]): 0.0 | SAGPY herbicidal effect rating (Sagittaria pygmaea, L.; [7]): 0.0 | SAGPY herbicidal effect rating (Sagittaria pygmaea, L.; [8]): 0.0 | CYPIR herbicidal effect rating (Cyperus iria; [5]): 0.0 | CYPIR herbicidal effect rating (Cyperus iria; [6]): 0.0 | CYPIR herbicidal effect rating (Cyperus iria; [7]): 4.0 | CYPIR herbicidal effect rating (Cyperus iria; [8]): 4.0 | MOOVA herbicidal effect rating [3, 5]: 9.0 | MOOVA herbicidal effect rating [3, 6]: 9.0 | MOOVA herbicidal effect rating [3, 7]: 9.0 | MOOVA herbicidal effect rating [3, 8]: 9.0 | ECHORC herbicidal effect rating [4, 5]: 2.0 | ECHORC herbicidal effect rating [4, 6]: 4.0 | ECHORC herbicidal effect rating [4, 7]: 7.0 | ECHORC herbicidal effect rating [4, 8]: 9.0

COc1ccc(C(C)C)cc1-c1nsc2ccc(-n3c(=O)cc(C(F)(F)F)n(C)c3=O)cc12 [Example 46, 3-[3-(5-Isopropyl-2-methoxyphenyl)-1,2-benzisothiazol-5-yl]-1-methyl-6-(trifluoromethyl)-2,4(1H,3H)-pyrimidinedione]
herbicidal effect rating, CYPSE [1, 9]: 0.0 | herbicidal effect rating, CYPSE [1, 10]: 0.0 | herbicidal effect rating, CYPSE [1, 11]: 2.0 | herbicidal effect rating, ORYSAT (rice tolerance) [2, 9]: 1.0 | herbicidal effect rating, ORYSAT (rice tolerance) [2, 10]: 1.0 | herbicidal effect rating, ORYSAT (rice tolerance) [2, 12]: 2.0 | herbicidal effect rating, ORYSAT (rice tolerance) [2, 11]: 3.0 | herbicidal effect rating, SAGPY (Sagittaria pygmaea, L.; [9]): 0.0 | herbicidal effect rating, SAGPY (Sagittaria pygmaea, L.; [10]): 0.0 | herbicidal effect rating, SAGPY (Sagittaria pygmaea, L.; [12]): 2.0 | herbicidal effect rating, SAGPY (Sagittaria pygmaea, L.; [11]): 7.0 | herbicidal effect rating, CYPIR (Cyperus iria; [9]): 2.0 | herbicidal effect rating, CYPIR (Cyperus iria; [10]): 6.0 | herbicidal effect rating, CYPIR (Cyperus iria; [12]): 9.0 | herbicidal effect rating, CYPIR (Cyperus iria; [11]): 9.0 | herbicidal effect rating, MOOVA [3, 9]: 9.0 | herbicidal effect rating, MOOVA [3, 10]: 9.0 | herbicidal effect rating, MOOVA [3, 12]: 9.0 | herbicidal effect rating, MOOVA [3, 11]: 9.0 | herbicidal effect rating, ECHORC [4, 9]: 9.0 | herbicidal effect rating, ECHORC [4, 10]: 9.0 | herbicidal effect rating, ECHORC [4, 12]: 9.0 | herbicidal effect rating, ECHORC [4, 11]: 9.0

Cn1c(C(F)(F)F)cc(=O)n(-c2ccc3snc(C(=O)NS(=O)(=O)c4ccc5ccccc5c4)c3c2)c1=O [Example 357, 1,2-Benzisothiazole-3-carboxamide, 5-[3,6-dihydro-3-methyl-2,6-dioxo-4-(trifluoromethyl)-1(2H)-pyrimidinyl]-N-(2-naphthylsulfonyl)-]
herbicidal effect rating, CYPSE [1, 13]: 0.0 | herbicidal effect rating, CYPSE [1, 14]: 0.0 | herbicidal effect rating, CYPSE [1, 7]: 0.0 | herbicidal effect rating, CYPSE [1, 8]: 0.0 | herbicidal effect rating ORYSAT [2, 13]: 2.0 | herbicidal effect rating ORYSAT [2, 14]: 2.0 | herbicidal effect rating ORYSAT [2, 7]: 2.0 | herbicidal effect rating ORYSAT [2, 8]: 3.0 | herbicidal effect rating, SAGPY (Sagittaria pygmaea, L.; [13]): 0.0 | herbicidal effect rating, SAGPY (Sagittaria pygmaea, L.; [14]): 0.0 | herbicidal effect rating, SAGPY (Sagittaria pygmaea, L.; [7]): 0.0 | herbicidal effect rating, SAGPY (Sagittaria pygmaea, L.; [8]): 4.0 | herbicidal effect rating, CYPIR (Cyperus iria; [13]): 0.0 | herbicidal effect rating, CYPIR (Cyperus iria; [14]): 0.0 | herbicidal effect rating, CYPIR (Cyperus iria; [7]): 2.0 | herbicidal effect rating, CYPIR (Cyperus iria; [8]): 6.0 | herbicidal effect rating, MOOVA [3, 13]: 9.0 | herbicidal effect rating, MOOVA [3, 14]: 9.0 | herbicidal effect rating, MOOVA [3, 7]: 9.0 | herbicidal effect rating, MOOVA [3, 8]: 9.0 | herbicidal effect rating, ECHORC [4, 13]: 4.0 | herbicidal effect rating, ECHORC [4, 14]: 5.0 | herbicidal effect rating, ECHORC [4, 7]: 5.0 | herbicidal effect rating, ECHORC [4, 8]: 7.0

CCCS(=O)(=O)NC(=O)COc1ccccc1-c1nsc2ccc(-n3c(=O)cc(C(F)(F)F)n(C)c3=O)cc12 [Example 556, Acetamide, 2-{o-{5-[3,6-dihydro-3-methyl-2,6-dioxo-4-(trifluoromethyl)-1(2H)-pyrimidinyl]-1,2-benzisothiazol-3-yl}phenoxy}-N-(propylsulfonyl)-]
herbicidal effect rating, CYPSE [1, 15]: 2.0 | herbicidal effect rating, CYPSE [1, 16]: 2.0 | herbicidal effect rating, CYPSE [1, 17]: 9.0 | herbicidal effect rating, CYPSE [1, 18]: 9.0 | herbicidal effect rating, CYPSE [1, 19]: 0.0 | herbicidal effect rating ORYSAT [2, 15]: 4.0 | herbicidal effect rating ORYSAT [2, 16]: 7.0 | herbicidal effect rating ORYSAT [2, 17]: 8.0 | herbicidal effect rating ORYSAT [2, 18]: 9.0 | herbicidal effect rating ORYSAT [2, 19]: 5.0 | herbicidal effect rating, SAGPY (Sagittaria pygmaea, L.; [15]): 0.0 | herbicidal effect rating, SAGPY (Sagittaria pygmaea, L.; [16]): 0.0 | herbicidal effect rating, SAGPY (Sagittaria pygmaea, L.; [17]): 6.0 | herbicidal effect rating, SAGPY (Sagittaria pygmaea, L.; [18]): 4.0 | herbicidal effect rating, SAGPY (Sagittaria pygmaea, L.; [19]): 3.0 | herbicidal effect rating, CYPIR (Cyperus iria; [15]): 0.0 | herbicidal effect rating, CYPIR (Cyperus iria; [16]): 2.0 | herbicidal effect rating, CYPIR (Cyperus iria; [17]): 7.0 | herbicidal effect rating, CYPIR (Cyperus iria; [18]): 9.0 | herbicidal effect rating, CYPIR (Cyperus iria; [19]): 3.0 | herbicidal effect rating, MOOVA [3, 15]: 9.0 | herbicidal effect rating, MOOVA [3, 16]: 9.0 | herbicidal effect rating, MOOVA [3, 17]: 9.0 | herbicidal effect rating, MOOVA [3, 18]: 9.0 | herbicidal effect rating, MOOVA [3, 19]: 9.0 | herbicidal effect rating, ECHORC [4, 15]: 2.9 | herbicidal effect rating, ECHORC [4, 16]: 3.6 | herbicidal effect rating, ECHORC [4, 17]: 4.4 | herbicidal effect rating, ECHORC [4, 18]: 9.0 | herbicidal effect rating, ECHORC [4, 19]: 9.0
